Experimental findings from patent US20240398828A1, “HETERO-ATOM CONTAINING COMPOUNDS AND USES THEREOF” (Kumquat Biosciences Inc., priority 2021, published 2024) are described below.

Each structure is given as a SMILES string.

Broadly, the IC50 is the concentration needed to halve the response being measured.

One assay addresses T1, PTPN2 (i.e., TC-PTP) (Homo sapiens, UniProt P17706).
T1 sequence (P17706 1-415): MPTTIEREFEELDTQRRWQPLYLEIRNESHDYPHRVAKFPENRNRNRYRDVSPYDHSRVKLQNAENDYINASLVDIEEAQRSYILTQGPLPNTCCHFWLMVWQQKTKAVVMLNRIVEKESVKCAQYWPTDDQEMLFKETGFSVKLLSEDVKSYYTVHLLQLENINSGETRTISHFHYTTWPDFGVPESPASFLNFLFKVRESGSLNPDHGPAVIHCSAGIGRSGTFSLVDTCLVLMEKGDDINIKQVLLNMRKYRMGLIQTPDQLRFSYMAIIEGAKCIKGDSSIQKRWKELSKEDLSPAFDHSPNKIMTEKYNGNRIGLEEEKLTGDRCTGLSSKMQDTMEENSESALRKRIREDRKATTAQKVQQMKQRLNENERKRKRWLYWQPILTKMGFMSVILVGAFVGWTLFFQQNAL
The assay can be described thus: Phosphatase activity assay (DiFMUP substrate), PTPN2. As to conditions: compounds binned ≤1 uM or >1 uM. The format is biochemical. The method in brief:
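RT, HEPES pH 7.5 buffer with DTT/Tween-20. 10-point inhibitor series premixed ~2 min with enzyme (PTPN2 0.025 ng/ul). Start with DiFMUP at enzyme Km (~45 μM for PTPN2). Read DiFMU ex360/em450 continuously 15–30 min; initial rate vs concentration, 4-parameter fit → IC50.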

The next assay addresses T2, PTPN1 (i.e., PTP1B) (Homo sapiens, UniProt P18031).
T2 sequence (P18031 1-435): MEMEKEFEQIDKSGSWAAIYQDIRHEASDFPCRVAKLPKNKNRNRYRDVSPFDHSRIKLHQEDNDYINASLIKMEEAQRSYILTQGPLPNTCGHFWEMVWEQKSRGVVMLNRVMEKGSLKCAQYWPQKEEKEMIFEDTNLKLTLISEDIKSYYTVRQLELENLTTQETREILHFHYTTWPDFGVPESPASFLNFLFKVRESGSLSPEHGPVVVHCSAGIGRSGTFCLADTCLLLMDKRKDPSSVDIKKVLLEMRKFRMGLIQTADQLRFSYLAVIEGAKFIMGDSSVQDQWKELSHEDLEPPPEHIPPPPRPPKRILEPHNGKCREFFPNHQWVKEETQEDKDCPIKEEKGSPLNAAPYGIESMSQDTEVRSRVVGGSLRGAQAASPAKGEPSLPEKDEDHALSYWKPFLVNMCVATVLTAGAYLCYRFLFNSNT
The assay can be described thus: Phosphatase activity assay (DiFMUP substrate), PTP1B. It counts as biochemical. As to conditions: compounds binned ≤1 uM or >1 uM. The method, boiled down:
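Read-out is continuous fluorescence of DiFMU (360 nm excitation, 450 nm emission) over about 15-30 minutes, with DiFMUP substrate at the enzyme's independently determined Km (PTPN2 approx. 45 μM final). Buffer: 50 mM HEPES pH 7.5, 150 mM NaCl, 0.5 mM EDTA, 1 mM DTT, 0.001% Tween-20, room temperature; initial rates versus 10-point dilution fitted for IC50, at least duplicate.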

With `Cn1ncc(-c2ccc(O)c(N3CC(=O)NS3(=O)=O)c2F)n1` [Compound 178, 5-(2-fluoro-6-hydroxy-3-(2-methyl-2H-1,2,3-triazol-4-yl)phenyl)-1,2,5-thiadiazolidin-3-one 1,1-dioxide], the IC50 at PTPN2 (i.e., TC-PTP) is not above 1 µM; on PTPN1 (i.e., PTP1B), not above 1 µM.
Take `CC(C)CCn1cc(-c2ccc(O)c(N3CC(=O)NS3(=O)=O)c2F)cn1` [Compound 203, 5-(2-fluoro-6-hydroxy-3-(1-isopentyl-1H-pyrazol-4-yl)phenyl)-1,2,5-thiadiazolidin-3-one 1,1-dioxide]: the IC50 at PTPN2 (i.e., TC-PTP) is not above 1 µM; at PTPN1 (i.e., PTP1B), not above 1 µM.
`CC(C)CNC1(c2cc(-c3ccc(O)c(N4CC(=O)NS4(=O)=O)c3F)nn2C)CC1` [Compound 269, 5-(2-fluoro-6-hydroxy-3-(5-(1-(isobutylamino)cyclopropyl)-1-methyl-1H-pyrazol-3-yl)phenyl)-1,2,5-thiadiazolidin-3-one 1,1-dioxide]: the IC50 was not above 1 µM at PTPN2 (i.e., TC-PTP) and not above 1 µM on PTPN1 (i.e., PTP1B).
For `O=C1CN(c2c(O)ccc(-c3cn(Cc4cccnc4)cn3)c2F)S(=O)(=O)N1` [Compound 457, 5-(2-fluoro-6-hydroxy-3-(1-(pyridin-3-ylmethyl)-1H-imidazol-4-yl)phenyl)-1,2,5-thiadiazolidin-3-one 1,1-dioxide], the IC50 on PTPN2 (i.e., TC-PTP) is not above 1 µM; at PTPN1 (i.e., PTP1B), not above 1 µM.
Turning to `CC(C)S(=O)(=O)Nc1ccc(-c2ccc(O)c(N3CC(=O)NS3(=O)=O)c2F)cc1` [Compound 374, N-(3′-(1,1-dioxido-4-oxo-1,2,5-thiadiazolidin-2-yl)-2′-fluoro-4′-hydroxy-[1,1′-biphenyl]-4-yl)propane-2-sulfonamide], the 50% inhibitory concentration (IC50) on PTPN2 (i.e., TC-PTP) was not above 1 µM; on PTPN1 (i.e., PTP1B), not above 1 µM.
Consider `O=C1CN(c2c(O)ccc(C3=CCN(C4CC4)CC3)c2F)S(=O)(=O)N1` [Compound 316, 5-(3-(1-cyclopropyl-1,2,3,6-tetrahydropyridin-4-yl)-2-fluoro-6-hydroxyphenyl)-1,2,5-thiadiazolidin-3-one 1,1-dioxide], for which the IC50 at PTPN2 (i.e., TC-PTP) is not above 1 µM; on PTPN1 (i.e., PTP1B), not above 1 µM.
For the compound `O=C1CN(c2c(O)ccc(-c3cc[nH]c3)c2F)S(=O)(=O)N1` [Compound 129, 5-(2-fluoro-6-hydroxy-3-(1H-pyrrol-3-yl)phenyl)-1,2,5-thiadiazolidin-3-one 1,1-dioxide], the IC50 on PTPN2 (i.e., TC-PTP) was not above 1 µM; at PTPN1 (i.e., PTP1B), not above 1 µM.
Regarding `N#Cc1ccc(-c2ccc(O)c(N3CC(=O)NS3(=O)=O)c2F)cn1` [Compound 144, 5-(3-(1,1-dioxido-4-oxo-1,2,5-thiadiazolidin-2-yl)-2-fluoro-4-hydroxyphenyl)picolinonitrile], the concentration for half-maximal inhibition (IC50) on PTPN2 (i.e., TC-PTP) was not above 1 µM; on PTPN1 (i.e., PTP1B) it was not above 1 µM.
`CC(O)c1cc(-c2ccc(O)c(N3CC(=O)NS3(=O)=O)c2F)[nH]n1` (stereo not drawn) [Compound 462, 5-(2-fluoro-6-hydroxy-3-(3-(1-hydroxyethyl)-1H-pyrazol-5-yl)phenyl)-1,2,5-thiadiazolidin-3-one 1,1-dioxide]: the IC50 at PTPN2 (i.e., TC-PTP) is not above 1 µM; on PTPN1 (i.e., PTP1B), not above 1 µM.
Regarding `O=C1CN(c2c(O)ccc(-c3ccn(CC4CC4)c3)c2F)S(=O)(=O)N1` [Compound 240, 5-(3-(1-(cyclopropylmethyl)-1H-pyrrol-3-yl)-2-fluoro-6-hydroxyphenyl)-1,2,5-thiadiazolidin-3-one 1,1-dioxide], the IC50 at PTPN2 (i.e., TC-PTP) is not above 1 µM; at PTPN1 (i.e., PTP1B), not above 1 µM.
Turning to `CN(C)C1CCN(c2cc(-c3ccc(O)c(N4CC(=O)NS4(=O)=O)c3F)[nH]n2)C1` (stereo not drawn) [Compound 397, 5-(3-(3-(3-(dimethylamino)pyrrolidin-1-yl)-1H-pyrazol-5-yl)-2-fluoro-6-hydroxyphenyl)-1,2,5-thiadiazolidin-3-one 1,1-dioxide], the IC50 was not above 1 µM on PTPN2 (i.e., TC-PTP) and not above 1 µM on PTPN1 (i.e., PTP1B).
Consider `O=C1CN(c2c(O)ccc(-c3cn(C4CCC4)cn3)c2F)S(=O)(=O)N1` [Compound 241, 5-(3-(1-cyclobutyl-1H-imidazol-4-yl)-2-fluoro-6-hydroxyphenyl)-1,2,5-thiadiazolidin-3-one 1,1-dioxide], for which the IC50 at PTPN2 (i.e., TC-PTP) is not above 1 µM; on PTPN1 (i.e., PTP1B), not above 1 µM.
Regarding `O=C1CN(c2c(O)ccc(-c3cnc(C4CC4)o3)c2F)S(=O)(=O)N1` [Compound 249, 5-(3-(2-cyclopropyloxazol-5-yl)-2-fluoro-6-hydroxyphenyl)-1,2,5-thiadiazolidin-3-one 1,1-dioxide], the IC50 on PTPN2 (i.e., TC-PTP) was not above 1 µM; at PTPN1 (i.e., PTP1B), not above 1 µM.
As for `O=C1CN(c2c(O)ccc(-c3cc(N4CC5(COC5)C4)n[nH]3)c2F)S(=O)(=O)N1` [Compound 466, 5-(3-(3-(2-oxa-6-azaspiro[3.3]heptan-6-yl)-1H-pyrazol-5-yl)-2-fluoro-6-hydroxyphenyl)-1,2,5-thiadiazolidin-3-one 1,1-dioxide], the IC50 on PTPN2 (i.e., TC-PTP) is not above 1 µM; at PTPN1 (i.e., PTP1B), not above 1 µM.
Consider `O=C1CN(c2c(O)ccc(-c3cnn(C4CCC4)c3)c2F)S(=O)(=O)N1` [Compound 194, 5-(3-(1-cyclobutyl-1H-pyrazol-4-yl)-2-fluoro-6-hydroxyphenyl)-1,2,5-thiadiazolidin-3-one 1,1-dioxide], for which the half-maximal inhibitory concentration (IC50) on PTPN2 (i.e., TC-PTP) was not above 1 µM; at PTPN1 (i.e., PTP1B), not above 1 µM.
In the case of `O=C1CN(c2c(O)ccc(-c3ccc4[nH]ncc4c3)c2F)S(=O)(=O)N1` [Compound 114, 5-(2-fluoro-6-hydroxy-3-(1H-indazol-5-yl)phenyl)-1,2,5-thiadiazolidin-3-one 1,1-dioxide], the IC50 at PTPN2 (i.e., TC-PTP) is not above 1 µM; at PTPN1 (i.e., PTP1B), not above 1 µM.
Consider `CCC1(c2cc(-c3ccc(O)c(N4CC(=O)NS4(=O)=O)c3F)[nH]n2)CC1` [Compound 369, 5-(3-(3-(1-ethylcyclopropyl)-1H-pyrazol-5-yl)-2-fluoro-6-hydroxyphenyl)-1,2,5-thiadiazolidin-3-one 1,1-dioxide], for which the IC50 on PTPN2 (i.e., TC-PTP) was not above 1 µM; on PTPN1 (i.e., PTP1B), not above 1 µM.
In the case of `CC1NCC=C1c1ccc(O)c(N2CC(=O)NS2(=O)=O)c1F` (stereo not drawn) [Compound 512, 5-(2-fluoro-6-hydroxy-3-(2-methyl-2,5-dihydro-1H-pyrrol-3-yl)phenyl)-1,2,5-thiadiazolidin-3-one 1,1-dioxide], the IC50 at PTPN2 (i.e., TC-PTP) was more than 1 µM; on PTPN1 (i.e., PTP1B) it was more than 1 µM.
With `O=C1CN(c2c(O)ccc(C3=CCN(CC(F)F)C3)c2F)S(=O)(=O)N1` [Compound 521, 5-(3-(1-(2,2-difluoroethyl)-2,5-dihydro-1H-pyrrol-3-yl)-2-fluoro-6-hydroxyphenyl)-1,2,5-thiadiazolidin-3-one 1,1-dioxide], the IC50 was not above 1 µM on PTPN2 (i.e., TC-PTP) and not above 1 µM at PTPN1 (i.e., PTP1B).
As to `CC(C)CNCc1cc(-c2ccc(O)c(N3CC(=O)NS3(=O)=O)c2F)nn1C` [Compound 288, 5-(2-fluoro-6-hydroxy-3-(5-((isobutylamino)methyl)-1-methyl-1H-pyrazol-3-yl)phenyl)-1,2,5-thiadiazolidin-3-one 1,1-dioxide], the IC50 at PTPN2 (i.e., TC-PTP) was not above 1 µM; at PTPN1 (i.e., PTP1B) it was not above 1 µM.
Consider `O=C1CN(c2c(O)ccc(-c3cn(C(F)F)nc3F)c2F)S(=O)(=O)N1` [Compound 509, 5-(3-(1-(difluoromethyl)-3-fluoro-1H-pyrazol-4-yl)-2-fluoro-6-hydroxyphenyl)-1,2,5-thiadiazolidin-3-one 1,1-dioxide], for which the half-maximal inhibitory concentration (IC50) on PTPN2 (i.e., TC-PTP) is not above 1 µM; at PTPN1 (i.e., PTP1B) it was not above 1 µM.
